A word on the logP: it is the decadic logarithm of the partition coefficient of the neutral form, usually between octanol and water.

The series can be described thus: method code SF-AS, from DOI: 10.1135/cccc19851642.
For the molecule `CCNC(=O)C=Cc1ccc([N+](=O)[O-])o1`, the logP was found to be 1.39. With `CNC(=O)C=Cc1ccc([N+](=O)[O-])o1` the figure was 0.98; with `CCCCOC(=O)C=Cc1ccc([N+](=O)[O-])o1`, 2.83; with `COC(=O)/C(C#N)=C/c1ccc(C)o1`, 2.09. Under `NC(=O)/C=C/c1ccc([N+](=O)[O-])o1` stands 0.65. With `CC(C)CNC(=O)C=Cc1ccc([N+](=O)[O-])o1` the figure was 2.23; with `CC(C)(C)NC(=O)C=Cc1ccc([N+](=O)[O-])o1`, 2.33.

The molecule `COC(=O)/C(C#N)=C/c1ccc(SC)o1` came in with a logP of 2.61. Under `CCOC(=O)/C=C/c1ccc([N+](=O)[O-])o1` stands 2.1. The molecule `CCC(C)NC(=O)C=Cc1ccc([N+](=O)[O-])o1` (stereo not given) showed a logP of 2.28. `CN(C)C(=O)/C=C/c1ccc([N+](=O)[O-])o1` registered a logP of 0.82. With `CC(C)COC(=O)/C=C/c1ccc([N+](=O)[O-])o1` the figure was 3.14.

Molecule `CCOC(=O)C(=Cc1ccc([N+](=O)[O-])o1)C(=O)OCC` registered a logP of 2.5. For `CCCCCOC(=O)C=Cc1ccc([N+](=O)[O-])o1`, the logP was 3.4. Under `O=[N+]([O-])/C=C/c1ccc([N+](=O)[O-])o1` stands 1.3; under `COC(=O)C(C#N)=Cc1ccc(Br)o1`, 2.41; under `CCC(C)OC(=O)/C=C/c1ccc([N+](=O)[O-])o1` (stereo not given), 3.09. In turn, `CSc1ccc(C=C(C#N)C#N)o1` showed a logP of 2.45. `CC(C)(C)CNC(=O)C=Cc1ccc([N+](=O)[O-])o1` gave a logP of 2.61. With `CC(C)OC(=O)/C=C/c1ccc([N+](=O)[O-])o1` the figure was 2.64.

The molecule `O=[N+]([O-])c1ccc(C=CBr)o1` showed a log partition coefficient (logP) of 2.45. The molecule `CC(C)(C)OC(=O)C=Cc1ccc([N+](=O)[O-])o1` had a logP of 3.09.

`N#CC(C#N)=Cc1ccc(I)o1` registered a log partition coefficient (logP) of 2.42.

Regarding `O=C(O)/C=C/c1ccc([N+](=O)[O-])o1`, the logP came out at 0.68.

As to `CCCCNC(=O)C=Cc1ccc([N+](=O)[O-])o1`, the logP is 2.36. Under `CCCOC(=O)C=Cc1ccc([N+](=O)[O-])o1` stands 2.67; under `CCCCCCCCCCCC(C)NC(=O)C=Cc1ccc([N+](=O)[O-])o1` (stereo not given), 3.7; under `COC(=O)C(C#N)=Cc1ccc(I)o1`, 2.75. With `CCCNC(=O)C=Cc1ccc([N+](=O)[O-])o1`, the logP came to 1.86. `CC(C)NC(=O)/C=C/c1ccc([N+](=O)[O-])o1` registered a logP of 1.8.

Values taken from the SangsterLogP compilation.
